Measured values published in paper PMC5955599, “The HTLV-1 gp21 fusion peptide inhibits antigen specific T-cell activation in-vitro and in mice” (PLoS Pathogens, 2018).

Assays:
C57BL/6 female mice = assay: MOG35-55-induced experimental autoimmune encephalomyelitis (EAE); type: in vivo, mouse
Description: (A-B) MOG35-55–antigen specific T-cells were activated by irradiated MOG35-55 presenting APCs, in the presence of HTLV FP or HTLV Scr at 10μM. (A) The proliferative responses were assessed by H^3-thymidine incorporation assay, and normalized to the proliferation of non-activated T-cells. The data is presented as mean inhibition of proliferation. n = 12. (B) IFN-γ was measured by ELISA assay. n = 12. (C-D) EAE was induced in C57BL/6 female mice that were treated with a single dose of HTLV FP, HTLV Scr or vehicle. […] (C) Direct clinical measurement of EAE phenotype in a 5-point scale with increased disease symptoms correlating with higher score value. The data is presented as mean EAE clinical score. (D) Mice were weighed the day before EAE induction, and the change (as a percentage) in weight was recorded. The data is presented as mean change from the initial weight. One-way ANOVA was used for statistical analysis. ^a HTLV FP ≠ Vehicle; ^b HTLV FP ≠ Vehicle & HTLV Scr; ^c HTLV FP ≠ HTLV Scr. ^a,b,cP<0.05. (E) Spleenocytes were harvested at 26 DPI and stimulated using MOG35-55. The proliferative responses were assessed by H^3-thymidine incorporation assay and normalized to the proliferation of non-activated T-cells. The data is presented as counts per minute (CPM). n = 7. (F-G) Spleenocytes were harvested at 26 DPI and stimulated using MOG35-55. Media was collected 48 hours following activation and secretion of IFN-γ and IL4 was measured by ELISA assay. […] One-way ANOVA was used for statistical analysis. *P<0.05;**P<0.01;***P<0.001; ns, not significant.
EAE was induced in 9-week-old wild type and homozygous C57BL/6 female mice (Harlan Laboratories Israel/ Weizmann Institute animal facilities) by injecting a peptide comprising residues 35–55 of mouse myelin oligodendrocyte glycoprotein (MOG35–55; PolyPeptide Laboratories, Strasbourg, France). Mice were injected subcutaneously above the lumbar spinal cord with 100 μl of emulsion containing 200 μg/mouse of the encephalitogenic peptide in complete Freund’s adjuvant (BD-Difco) enriched with 250 μg/mouse of heat-inactivated Mycobacterium tuberculosis (BD-Difco) at 0 days post-induction (DPI). The HTLV FP was dissolved in PBS and added to the emulsion (1mg/kg). Pertussis toxin (Enzo Life Sciences) at a dose of 300 ng per mouse was injected intraperitoneally immediately after the encephalitogenic injection, as well as at […]. EAE disease was scored using a five-point grading with 0 for no clinical disease; 1, tail weakness; 2, paraparesis (incomplete paralysis of one or two hindlimbs); 3, paraplegia (complete paralysis of one or two hindlimbs); 4, paraplegia with forelimb weakness or paralysis; 5, moribund or dead animals. The mice were examined daily.
EAE was induced in C57BL/6 female mice that were either treated with a single dose of HTLV FP or vehicle. […] (A) Direct clinical measurement of EAE phenotype in a 5-point scale with increased disease symptoms correlating with higher score value. The data is presented as mean EAE clinical score. (B) Mice were weighed the day before EAE induction, and the change (as a percentage) in weight was recorded. The data is presented as mean change from the initial weight. Student’s t-test was used for statistical analysis. *P<0.05; **P<0.01;***P<0.001. (TIF) Click here for additional data file.

[1] = tested on: MOG35-55–antigen specific T-cells; assay: Cytokine secretion from activated antigen-specific T-cells (ELISA); type: cell-based, mouse (C57Bl/6J); settings: peptide at 10μM, APC-activated T-cells, media 24 hours following activation, n = 12
Description: Fig 2 Modulation of Th1/Th2 gene expression and cytokine secretion from activated T-cells by the HTLV FP. MOG35-55–antigen specific T-cells were activated by irradiated MOG35-55 presenting APCs, in the presence of the HTLV FP at 10μM. (A) Total RNA was isolated 24 hours following activation and mRNA expression levels were determined by qRT-PCR. The values of each gene were normalized to Rpl13a as a housekeeping control. The HTLV FP reduces mRNA expression of Th1 specific genes (IFNG, LTA, and STAT4) and elevates mRNA expression of Th2 specific genes (IL4 and IL10). The data is presented as arbitrary units. n≥3. (B) Media was collected 24 hours following activation and secretion of cytokines was measured by ELISA assay. IFN-γ secretion is inhibited, IL4 secretion is elevated and TNFα is not affected by the HTLV FP. n = 12. One-way ANOVA was used for statistical analysis. *P<0.05; **P<0.01;***P<0.001.
Antigen-specific T-cells were plated onto round 96-well plates in medium containing RPMI-1640 supplemented with 2.5% fetal calf serum (FCS), 100 U/ml penicillin, 100 μg/ml streptomycin, 50μM β-mercaptoethanol, and 2mM L-glutamine. […] In addition, the relevant peptide was added. Each treatment was made with quadruplicate. Analysis of IFN-γ, IL-4 and TNFα secretion was performed by ELISA 24 hours after cell activation according to standard protocols from R&D systems.

[2] = tested on: MOG35-55–antigen specific T-cells; assay: In-vitro T-cell proliferative response (H3-thymidine incorporation); type: cell-based, mouse (C57Bl/6J); settings: peptide at 10μM, irradiated MOG35-55 presenting APCs, mean inhibition of proliferation, n = 12
[3] = tested on: human peripheral T lymphocytes; assay: Cytokine secretion from primary human peripheral T-cells (ELISA); type: cell-based; settings: peptide at 10μM, CD3 and CD28 antibodies, media 48 hours following activation, n = 12
Description: Fig 4 Primary human T-cell activation is inhibited upon HTLV FP treatment. Human peripheral T lymphocytes were isolated from whole blood and activated using CD3 and CD28 antibodies, in the presence of HTLV FP or HTLV Scr at 10μM. Media was collected 48 hours following activation and secretion of IL2, IFN-γ and IL10 was measured by ELISA assay. […] One-way ANOVA was used for statistical analysis. *P<0.05; ***P<0.001; ns, not significant.
Human peripheral T lymphocytes were isolated from whole blood of healthy adult donors by dextran sedimentation and Ficoll (Sigma) gradient separation followed by depletion of B cells using nylon wool column (Unisorb), to which B cells were adsorbed. Cells were incubated in a complete RPMI growth medium (500 ml RPMI Ca/Mg + heat inactivated FCS (10% final) + 5 ml 200 mM L-Glu (2 mM final) +5 ml […] Na pyruvate (1 mM final) + 5 ml Pen Strep antibiotics) for more than 2 h, and then non-adherent cells were harvested and transferred to a new plate, resulting in ~90% CD3+ T lymphocytes. Cells were then used for in vitro assay, in which […] were plated per well in a 96-well plate and activated using CD3 and CD28 antibodies.
Human peripheral T lymphocytes were isolated from whole blood of healthy donors and were incubated in a complete RPMI growth medium (500 ml RPMI Ca/Mg + heat inactivated FCS (10% final) + 5 ml 200 mM L-Glu (2 mM final) +5 ml […] Na pyruvate (1 mM final) + 5 ml Pen Strep antibiotics). Cells were activated using CD3 and CD28 antibodies, in the presence of relevant peptides at 10μM. Media was collected 48 hours following activation and secretion of IL2 and IFN-γ was determined according to standard protocols from R&D systems.

With “ASKAASASPVSAGVTGIGVLMLGVVAMGWASLG [HTLV Scr, scrambled HTLV FP peptide, same amino acid composition and length as the HTLV FP]” the “clinical symptoms of a cage of treated mice at DPI 17” value (C57BL/6 female mice; additional experiment, S5 and S6 Movies) was “exhibiting clinical EAE symptoms”, the “EAE clinical signs, additional experiment” value (C57BL/6 female mice; single dose 1mg/kg, HTLV FP, HTLV Scr or vehicle, period 11 to 16 DPI, 5-point scale) was “ascent between 11 to 16 DPI” and the IFN-γ secretion [1] was “higher potency than the HTLV Scr”. For the same sequence, the “inhibition of T-cell proliferation, activation by MOG35-55 presenting APCs” value [2] was “higher potency than the HTLV Scr”, the “IFN-γ secretion, human T-cells” value [3] was “had no effect on T-cell activation” and the “IL2 secretion, human T-cells” value [3] was “had no effect on T-cell activation”. The “IL10 secretion, human T-cells” value [3] was “had no effect on T-cell activation”.
